# Reference: paper PMC11434613, “The Remarkable and Selective In Vitro Cytotoxicity of Synthesized Bola-Amphiphilic Nanovesicles on Etoposide-Sensitive and -Resistant Neuroblastoma Cells” (Nanomaterials, 2024)
# Assays:
# HTLA-ER cells [1] = settings: cited from earlier work
# HTLA-ER cells [2] = assay: Cell viability assay (CellTiter 96 AQueous One Solution) on etoposide-resistant HTLA-ER NB cells; assay type: cell-based, human; settings: average IC50 on three human normal oral cell lines (ref 69) / IC50 on HTLA-ER after 24 h (ref 58)
# Source text: HTLA-230 human stage-IV NB cells were kindly provided by Dr. L. Raffaghello (G. Gaslini Institute, Genoa, Italy). The HTLA-ER cells were selected by treating HTLA-230 parental cells for six months with increasing concentrations of etoposide, as previously reported. Both cell populations were maintained in RPMI 1640 medium (Euroclone Spa, Pavia, Italy) supplemented with 10% fetal bovine serum (FBS, Euroclone Spa, Pavia, Italy), 1% L-glutamine (Euroclone Spa, Pavia, Italy), and 1% Penicillin/Streptomicin (Euroclone Spa, Pavia, Italy) and grown in standard conditions (37 °C humidified incubator with 5% CO2).
# To determine the cytotoxic effects of BPPB, in vitro time- and dose-dependent experiments were carried out. Cells were first treated for 24, 48, and 72 h, with increasing concentrations (0.5–50 µM) of the compound. In a subsequent series of the experiments, cells were treated for 24, 48, and 72 h with increasing concentration of BPPB in the range of 0.1–2 µM. […] Cell cultures were carefully monitored before and during the experiments to ensure optimal cell density.
# Cell viability was determined by using the CellTiter 96® AQueous One Solution Cell Proliferation Assay (Promega, Madison, WI, USA), as previously described. Briefly, cells (10,000 cells/well) were seeded into 96-well plates (Corning Incorporated, Corning, NY, USA) and then treated. Next, cells were incubated with 20 µL of CellTiter, and the absorbance at 490 nm was recorded using a microplate reader (EL-808, BIO-TEK Instruments Inc., Winooski, VT, USA). IC50 was evaluated by GraphPad Prism 5.4.2 Software (GraphPad Software, Boston, MA, USA).
# Results are expressed as the means ± S.D. of at least four independent experiments in which six different wells were analyzed every time for each experimental condition. The statistical significance of differences was determined by two-way analysis of variances (ANOVA) followed by Tukey’s multicomparison test using GraphPad Prism 8.0 (GraphPad Software v8.0, San Diego, CA, USA); p < 0.05 was considered statistically significant. Asterisks or other indicators (see Figures captions) indicate the following p-value ranges: p > 0.05 no symbols, * = p < 0.05, ** = p < 0.01, *** = p < 0.001, **** = p < 0.0001.
# [3] = system: HTLA-230 human stage-IV NB cells; settings: 100 µM for 24 h; cited from earlier work
smiles,measurement,setting,value
"COc1cc([C@@H]2c3cc4c(cc3[C@@H](O[C@@H]3O[C@@H]5CO[C@@H](C)O[C@H]5[C@H](O)[C@H]3O)[C@H]3COC(=O)[C@H]23)OCO4)cc(OC)c1O [ETO, etoposide]",Cell viability HTLA-ER,HTLA-ER cells [1]; 100 µM for 24 h,over 80%
same,IC50,"HTLA-ER cells [1]; 24 h of exposure, read-out: Extrapolated IC50 on HTLA-ER",592 µM
same,Etoposide SI for HTLA-ER NB cells,HTLA-ER cells [2],0.32
same,Cell viability HTLA-230,[3],~70%
